Each compound was assayed against T1, CRF1 receptors (Homo sapiens, UniProt P34998) (assay: CRF1 receptor radioligand binding assay ([125I]-oCRF competition, IMR-32 cell membranes)). Settings: IMR-32 cell membranes, [125I]-oCRF 100 pM; read-out: Ki (CRF-1R).
T1 construct: endogenous in cells; host or cells: IMR-32 cells, transformed with 2.5 µM 5'-bromo-2'-deoxyuridine for 10 days; membrane preparation
T1 sequence (P34998 24-415): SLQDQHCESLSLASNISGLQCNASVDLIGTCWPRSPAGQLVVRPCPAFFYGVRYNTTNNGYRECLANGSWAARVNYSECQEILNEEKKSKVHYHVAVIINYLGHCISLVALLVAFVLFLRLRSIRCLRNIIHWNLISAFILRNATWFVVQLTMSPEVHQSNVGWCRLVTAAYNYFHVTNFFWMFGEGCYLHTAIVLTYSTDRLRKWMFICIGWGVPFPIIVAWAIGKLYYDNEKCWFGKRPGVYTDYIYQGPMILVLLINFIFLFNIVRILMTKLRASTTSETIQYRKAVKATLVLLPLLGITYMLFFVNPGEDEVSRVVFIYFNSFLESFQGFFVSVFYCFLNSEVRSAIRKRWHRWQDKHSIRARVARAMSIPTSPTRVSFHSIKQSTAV
Experimental: CRF1 receptor antagonists, by occupying the same receptors, blocks the accessibility of the receptors to CRF, a hypothalamic factor mediating body's responses to physiological and psychological stress. The following radioligand binding assay examines the ability of the antagonists to bind the CRF1 receptors by assessing their ability to compete with binding of CRF to the receptors in cell membrane.
Tissue culture and membrane preparation. IMR-32 cells were grown at 37° C. in 5% CO2 as a monolayer in medium consisting of MEM supplemented with 10% heat-inactivated fetal bovine serum, 0.1 mM nonessential amino acids, 1 mM sodium pyruvate and 2 mM L-glutamine. […] After transformation, cells were rinsed twice with phosphate-buffered saline, and incubated for 10–15 min. at 4° C. in homogenization buffer consisting of 50 mM Tris (pH 7.2), 10 mM MgCl2 and 2 mM EGTA. Cells were transferred from plates to polypropylene tubes (16×100 mm), homogenized and centrifuged at 32,000×g for 15 min. Pellets were resuspended by homogenization in buffer and centrifuged at 32,000×g for 15 min. Pellets were resuspended in homogenization buffer then stored at −80° C. until needed.
Radioligand binding assays. […] The assay buffer consisted of 50 mM Tris (pH 7.2), 10 mM MgCl2, 0.5% BSA, 0.005% Triton X-100, 10 μg/mL aprotinin and 10 μg/mL leupeptin. Assays were stopped by addition of ice-cold wash buffer (50 mM Tris, pH 7.4 and 0.2% BSA). Filtration over glass fiber filters (Whatman GF/B) previously soaked in 50 mM Tris, pH 7.2 and 1% BSA was carried out using a Brandel cell harvester. Filters were washed with 10 mL of ice-cold wash buffer. Non-specific binding was defined with 10 μM oCRF. IC50 values for oCRF and test compounds were calculated by nonlinear regression using a one-site binding curve (GraphPad Prism).

| Structure (SMILES) | Ki |
| --- | --- |
| CCN(Cc1ccccc1)Cc1c(C(F)(F)F)nc2n(-c3ccc(C(C)C)cc3Br)c3ccccc3n12 [Example 208, Benzyl-[8-(2-bromo-4-isopropyl-phenyl)-2-trifluoromethyl-8H-1,3a,8-triaza-cyclopenta[α]inden-3-ylmethyl]-ethyl-amine] | < 10000 nM |
| CC(C)c1ccc(-n2c3ccccc3n3c(CN(CCC(F)(F)F)CC4CC4)c(C(F)(F)F)nc23)c(Br)c1 [Example 189, [8-(2-Bromo-4-isopropyl-phenyl)-2-trifluoromethyl-8H-1,3a,8-triaza-cyclopenta[α]inden-3-ylmethyl]-cyclopropylmethyl-(3,3,3-trifluoro-propyl)-amine] | < 1000 nM |
| Cc1cc(C)c(-n2c3ncccc3n3c(CN(C)Cc4ccccc4)c(C(F)(F)F)nc23)c(C)c1 [Example 228, Benzyl-methyl-[2-trifluoromethyl-8-(2,4,6-trimethyl-phenyl)-8H-1,3a,7,8-tetraaza-cyclopenta[α]inden-3-ylmethyl]-amine] | < 1000 nM |
| CCCC(CCC)c1c(CC)nc2n1CCN2c1c(C)cc(C)cc1C [Example 49, 6-Ethyl-5-(1-propyl-butyl)-1-(2,4,6-trimethyl-phenyl)-2,3-dihydro-1H-imidazo[1,2-a]imidazole] | < 1000 nM |
| CCCN(CC(F)(F)F)C(=O)c1c(CC)nc2n1CCN2c1c(C)cc(Cl)cc1Cl [Example 33, 7-(2,4-Dichloro-6-methyl-phenyl)-2-ethyl-6,7-dihydro-5H-imidazo[1,2-a]imidazole-3-carboxylic acid propyl-(2,2,2-trifluoro-ethyl)-amide] | < 100 nM |
| CCN(Cc1c(C(F)(F)F)nc2n1CCCN2c1c(C)cc(C)cc1Cl)CC1CC1 [Example 113, [8-(2-Chloro-4,6-dimethyl-phenyl)-2-trifluoromethyl-5,6,7,8-tetrahydro-imidazo[1,2-a]pyrimidin-3-ylmethyl]-cyclopropylmethyl-ethyl-amine] | < 100 nM |
| Cc1cc(C)c(-n2c(Cl)cn3c(CN(CC4CC4)CC(F)(F)C(F)(F)F)c(C(F)(F)F)nc23)c(C)c1 [Example 318] | < 10 nM |
| CCCN(CCC)C(=O)c1c(CC)nc2n(-c3c(C)cc(C)cc3C)c(Cl)cn12 [Example 292, 6-Chloro-2-ethyl-7-(2,4,6-trimethylphenyl)-7H-imidazo[1,2-a]imidazole-3-carboxylic acid N,N-dipropylamide] | < 100 nM |
| CCCN(CCC)Cc1c(CC)nc2n(-c3ccc(Cl)cc3Cl)c(Cl)cn12 [Example 288, 3-[(N,N-Dipropylamino)methyl]-6-chloro-2-ethyl-7-(2,4-diclorophenyl)-7H-imidazo[1,2-a]imidazole] | < 100 nM |
| Cc1cc(C)c(-n2c(Cl)cn3c(CN(C)Cc4ccccc4)c(C(F)(F)F)nc23)c(C)c1 [Example 307, Benzyl-[6-chloro-2-trifluoromethyl-7-(2,4,6-trimethyl-phenyl)-7H-imidazo[1,2-a]imidazol-3-ylmethyl]-methyl-amine] | < 1000 nM |
| CCCN(CCc1ccccc1)C(=O)c1c(C)nc2n1CCCN2c1c(C)cc(C)cc1C [Example 56, 2-Methyl-8-(2,4,6-trimethyl-phenyl)-5,6,7,8-tetrahydro-imidazo[1,2-a]pyrimidine-3-carboxylic acid phenethyl-propyl-amide] | < 10000 nM |
| CCCN(CC1CC1)C(=O)c1c(CC)nc2n(-c3c(C)cc(C)cc3C)c(Cl)cn12 [Example 290, 6-Chloro-2-ethyl-7-(2,4,6-trimethylphenyl)-7H-imidazo[1,2-a]imidazole-3-carboxylic acid N-cyclopropylmethyl-N-propylamide] | < 100 nM |
| CCCN(Cc1c(C(F)(F)F)nc2n1CCCN2c1c(C)cc(C)cc1C)CC(F)(F)C(F)(F)F [Example 80, (2,2,3,3,3-Pentafluoro-propyl)-propyl-[2-trifluoromethyl-8-(2,4,6-trimethyl-phenyl)-5,6,7,8-tetrahydro-imidazo[1,2-a]pyrimidin-3-ylmethyl]-amine] | < 1000 nM |
| Cc1cc(C)c(N2CCCn3c2nc(C(F)(F)F)c3CN(CCC2CC2)CC(F)(F)F)c(Cl)c1 [Example 126, [8-(2-Chloro-4,6-dimethyl-phenyl)-2-trifluoromethyl-5,6,7,8-tetrahydro-imidazo[1,2-a]pyrimidin-3-ylmethyl]-(2-cyclopropyl-ethyl)-(2,2,2-trifluoro-ethyl)-amine] | < 1000 nM |
| CCCN(Cc1ccccc1)Cc1c(C(F)(F)F)nc2n(-c3ccc(C(C)C)cc3Br)c3ccccc3n12 [Example 209, Benzyl-[8-(2-bromo-4-isopropyl-phenyl)-2-trifluoromethyl-8H-1,3a,8-triaza-cyclopenta[α]inden-3-ylmethyl]-propyl-amine] | < 10000 nM |
| Cc1cc(C)c(N2CCCn3c2nc(C(F)(F)F)c3CN(CCC2CC2)CCC(F)(F)F)c(C)c1 [Example 89, (2-Cyclopropyl-ethyl)-[2-trifluoromethyl-8-(2,4,6-trimethyl-phenyl)-5,6,7,8-tetrahydro-imidazo[1,2-a]pyrimidin-3-ylmethyl]-(3,3,3-trifluoro-propyl)-amine] | < 1000 nM |
| CCCN(CC1CCC1)C(=O)c1c(C)nc2n1CCCN2c1c(C)cc(C)cc1C [Example 57, 2-Methyl-8-(2,4,6-trimethyl-phenyl)-5,6,7,8-tetrahydro-imidazo[1,2-a]pyrimidine-3-carboxylic acid cyclobutylmethyl-propyl-amide] | < 10000 nM |
| CC(C)c1ccc(-n2c3ccccc3n3c(CN(CCC4CC4)CC(F)(F)F)c(C(F)(F)F)nc23)c(Br)c1 [Example 204, [8-(2-Bromo-4-isopropyl-phenyl)-2-trifluoromethyl-8H-1,3a,8-triaza-cyclopenta[α]inden-3-ylmethyl]-(2-cyclopropyl-ethyl)-(2,2,2-trifluoro-ethyl)-amine] | < 10000 nM |
| CCCN(Cc1c(C(F)(F)F)nc2n(-c3c(C)cc(C)cc3C)c3ccccc3n12)CC(F)(F)F [Example 159, Propyl-(2,2,2-trifluoro-ethyl)-[2-trifluoromethyl-8-(2,4,6-trimethyl-phenyl)-8H-1,3a,8-triaza-cyclopenta[α]inden-3-ylmethyl]-amine] | < 100 nM |
| Cc1cc(C)c(-n2c(Cl)cn3c(CN(C)Cc4ccco4)c(C(F)(F)F)nc23)c(C)c1 [Example 314, [6-Chloro-2-trifluoromethyl-7-(2,4,6-trimethyl-phenyl)-7H-imidazo[1,2-a]imidazol-3-ylmethyl]-furan-2-ylmethyl-methyl-amine] | < 1000 nM |
| CCN(Cc1ccccc1)Cc1c(C(F)(F)F)nc2n(-c3c(C)cc(C)cc3C)c(Cl)cn12 [Example 309, Benzyl-[6-chloro-2-trifluoromethyl-7-(2,4,6-trimethyl-phenyl)-7H-imidazo[1,2-a]imidazol-3-ylmethyl]-ethyl-amine] | < 1000 nM |
| Cc1cc(C)c(N2CCCn3c2nc(C(F)(F)F)c3CN2CCSCC2)c(C)c1 [Example 61, 3-Thiomorpholin-4-ylmethyl-2-trifluoromethyl-8-(2,4,6-trimethyl-phenyl)-5,6,7,8-tetrahydro-imidazo[1,2-a]pyrimidine] | < 1000 nM |
| CCN(Cc1c(C(F)(F)F)nc2n1CCCN2c1c(C)cc(C)cc1Cl)CC1CCC1 [Example 137, [8-(2-Chloro-4,6-dimethyl-phenyl)-2-trifluoromethyl-5,6,7,8-tetrahydro-imidazo[1,2-a]pyrimidin-3-ylmethyl]-cyclobutylmethyl-ethyl-amine] | < 1000 nM |
| CCCN(CCC1CC1)Cc1c(CC)nc2n(-c3c(C)cc(C)cc3C)c3ncccc3n12 [Example 252, (2-Cyclopropyl-ethyl)-[2-ethyl-8-(2,4,6-trimethyl-phenyl)-8H-1,3a,7,8-tetraaza-cyclopenta[α]inden-3-ylmethyl]-propyl-amine] | < 1000 nM |
| Cc1cc(C)c(N2CCCn3c2nc(C(F)(F)F)c3CN2CCCC(C)C2)c(Cl)c1 (centres unmarked) [Example 101, 8-(2-Chloro-4,6-dimethyl-phenyl)-3-(3-methyl-piperidin-1-ylmethyl)-2-trifluoromethyl-5,6,7,8-tetrahydro-imidazo[1,2-a]pyrimidine] | < 1000 nM |
| CCCN(Cc1c(C(F)(F)F)nc2n(-c3c(C)cc(C)cc3C)c3ncccc3n12)CC(F)(F)F [Example 222, Propyl-(2,2,2-trifluoro-ethyl)-[2-trifluoromethyl-8-(2,4,6-trimethyl-phenyl)-8H-1,3a,7,8-tetraaza-cyclopenta[α]inden-3-ylmethyl]-amine] | < 1000 nM |

Source: patent US7125990B2, “Imidazolyl derivatives as corticotropin releasing factor inhibitors” (Bristol-Myers Squibb COmpany, priority 2001, dated 2006)
